Test results: patent US8530493B2, “Indolopyridines as Eg5 kinesin modulators” (4SC AG, priority 2006, dated 2013)

What follows are compounds tested on RKO p21 uninduced (proliferating) colon adenocarcinoma cells (assay: Alamar Blue cell viability assay, RKO p21 uninduced (proliferating)). Conditions: Homo sapiens, Table B3, anti-proliferative/cytotoxic activity, 72 hours, read-out: −log EC50 RKO p21 uninduced (proliferating) (converted).
Type: cell-based
Outline: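 RKO p21 or p27 subclones grown without Ponasterone A, i.e. proliferating, exposed 24 h after seeding to semi-log compound dilutions in DMEM/10% FCS (1% DMSO controls) for 72 h at 37° C. Alamar Blue fluorescence (544/590 nm) read relative to untreated cells; EC50 from dose-response curves, given as −log EC50 (mol/l).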
C#CCNCCCN1C(=O)N2[C@H](c3cccc(O)c3)c3[nH]c4cc(F)c(Cl)cc4c3C[C@@]2(C)C1=O (racemic) [Example 466, (3aSR,10RS)-6-Chloro-7-fluoro-10-(3-hydroxy-phenyl)-3a-methyl-2-(3-prop-2-ynylamino-propyl)-3a,4,9,10-tetrahydro-2,9,10a-triaza-cyclopenta[b]fluorene-1,3-dione] was tested, and the EC50 was 39.8 to 251 nM. C=CCNCCCN1C(=O)N2[C@H](c3cccc(O)c3)c3[nH]c4ccc(OCC)cc4c3C[C@@]2(C)C1=O (racemic) [Example 191, (3aSR,10RS)-2-(3-Allylamino-propyl)-6-ethoxy-10-(3-hydroxy-phenyl)-3a-methyl-3a,4,9,10-tetrahydro-2,9,10a-triaza-cyclopenta[b]bluorene-1,3-dione] was tested, and the EC50 was 39.8 to 251 nM. C=CCN(C)CCN1C(=O)N2[C@H](c3cccc(O)c3)c3[nH]c4cc(F)c(OC)cc4c3C[C@@]2(C)C1=O (racemic) [Example 452, (3aSR,10RS)-2-[2-(Allyl-methyl-amino)-ethyl]-7-fluoro-10-(3-hydroxy-phenyl)-6-methoxy-3a-methyl-3a,4,9,10-tetrahydro-2,9,10a-triaza-cyclopenta[b]fluorene-1,3-dione] gave an EC50 of 39.8 to 251 nM. Work on CC(=O)N1CCN(CCCN2C(=O)N3[C@H](c4cccc(O)c4)c4[nH]c5ccc(OC(F)F)cc5c4C[C@@]3(C)C2=O)CC1 (racemic) [Example 241, (3aSR,10RS)-2-[3-(4-Acetyl-piperazin-1-yl)-propyl]-6-(1,1-difluoro-methoxy)-10-(3-hydroxy-phenyl)-3a-methyl-3a,4,9,10-tetrahydro-2,9,10a-triaza-cyclopenta[b]fluoroene-1,3-dione] yielded an EC50 of 39.8 to 251 nM. In the case of CCOc1ccc2[nH]c3c(c2c1)C[C@@]1(C)C(=O)N(CCCN2CC=CCC2)C(=O)N1[C@@H]3c1cccc(O)c1 (racemic) [Example 208, (3aSR,10RS)-2-[3-(3,6-Dihydro-2H-pyridin-1-yl)-propyl]-6-ethoxy-10-(3-hydroyx-phenyl)-3a-methyl-3a,4,9,10-tetrahydro-2,9,10a-triaza-cyclopenta[b]fluorene-1,3-dione], the EC50 is reported as 39.8 to 251 nM. CC(C)CNCCN1C(=O)N2[C@H](c3cccc(O)c3)c3[nH]c4cc(F)c(Cl)cc4c3C[C@@]2(C)C1=O (racemic) [Example 340, (3aSR,10RS)-6-Chloro-7-fluoro-10-(3-hydroxy-phenyl)-2-(2-isobutylamino-ethyl)-3a-methyl-3a,4,9,10-tetrahydro-2,9,10a-triaza-cyclopenta[b]fluorene-1,3-dione] showed an EC50 of 39.8 to 251 nM. CC(C)NCCN1C(=O)N2[C@H](c3cccc(O)c3)c3[nH]c4ccc(Br)cc4c3C[C@@]2(C)C1=O (racemic) [Example 233, (3aSR,10RS)-6-Bromo-10-(3-hydroxy-phenyl)-2-(2-ispropylamino-ethyl)-3a-methyl-3a,4,9,10-tetrahydro-2,9,10a-triaza-cyclopenta[b]fluorene-1,3-dione] was tested, and the EC50 was ≤ 39.8 nM. Compound COCCNCCCN1C(=O)N2[C@H](c3cccc(O)c3)c3[nH]c4cc(F)c(OC)cc4c3C[C@@]2(C)C1=O (racemic) [Example 306, (3aSR,10RS)-7-Fluoro-10-(3-hydroxy-phenyl)-6-methoxy-2-[3-(2-methoxy-ethylamino)-propyl]-3a-methyl-3a,4,9,10-tetrahydro-2,9,10a-triaza-cyclopenta[b]fluorene-1,3-dione] has an EC50 of 39.8 to 251 nM. With C#CCNCCCN1C(=O)N2[C@H](c3cccc(O)c3)c3[nH]c4cc(F)c(OC)cc4c3C[C@@]2(C)C1=O (racemic) [Example 309, (3aSR,10RS)-7-Fluoro-10-(3-hydroxy-phenyl)-6-methoxy-3a-methyl-2-(3-prop-2-ynylamino-propyl)-3a,4,9,10-tetrahydro-2,9,10a-triaza-cyclopenta[b]fluorene-1,3-dione] the EC50 was 39.8 to 251 nM.
